According to US9328331B2, “Compositions and methods for promoting beta cell maturity” (Joslin Diabetes Center, Inc., priority 2009, dated 2016):

Key:
HPANC-1 = settings: non-insulin expressing human epithelial cell line HPANC-1, Misiti et al. 2005; cited from earlier work
single beta cells = assay: Reverse hemolytic plaque assay (RHPA) of insulin secretion from single beta cells; assay type: cell-based, rat
Description: (§1) RHPA allows the evaluation of secretion from single beta cells (see, e.g., Bosco et al., Am. J. Physiol., 268:C611-C618, 1995; Aguayo-Mazzucato et al., PLoS ONE, 1:e35, 2006). Briefly, insulin secreted during incubation with glucose binds to anti-insulin antibody and complement and lyses RBCs forming hemolytic immunoplaques around secreting cells. Accordingly, the area of the hemolytic plaque is proportional to the amount of insulin secreted by that individual cell. Glucose-stimulated insulin secretion (GSIS) is reflected by the secretion index: the product of the percentage of secreting cells and the mean area of immunoplaques. RHPA is a very sensitive assay in which the proportion of cells secreting and the robustness of their secretion can be measured. However it is laborious, therefore classic static insulin secretion studies were also performed with an insulin ELISA for measurement. Insulin secretion was measured in static conditions by sequential incubation in 2.6 mM and 16.8 mM glucose in Krebs-Ringer bicarbonate buffer (KRB, 16 mM HEPES and 0.1% BSA, pH 7.4) as previously described (Schuppin et al., In Vitro Cell Dev Biol Anim 29A:339-344 (1993); Salomon et al., Exp Cell Res 162:507-520 (1986)). Supernatants and cells were frozen until assayed for Insulin content.
(§2) Similar results were found in static incubation experiments were performed with P7 dispersed islets cultured in the presence (or absence) of 10^−11 M T3 for four days. mRNA levels for MafA and Ins2 were evaluated using real-time PCR. […] To further evaluate insulin secretion in these cells, P8 islets were dispersed and then cultured for 4 days with and without 10^−11 M T3, and a reverse hemolytic plaque assay (RHPA) was used to evaluate insulin secretion from single beta cells. […] FIGS. 8A-8B show beta cell glucose responsiveness in 2.8 or 16.8 mM glucose in control cells (8A) or cells treated with T3 (8B) in one of the three RHPA experiments.

pancreatic acinar cells = settings: Ledda-Columbano et al. 2005; cited from earlier work
neonatal islets [1] = assay: Quantitative PCR of MafA, insulin and other gene transcription in dispersed neonatal islets cultured with glucose and T3; assay type: cell-based, rat; settings: P7 islets cultured with glucose and T3 at 0.015 nM in CS-FBS for four days, separately and together, FIG. 5A legend
P7 dispersed islets = assay: Glucose-stimulated insulin secretion by static incubation, insulin ELISA; assay type: cell-based, rat; settings: 10^−11 M T3 for four days, FIG. 6B
Description: as §1, with “However it is laborious, therefore classic static insulin secretion studies were also performed with an insulin ELISA for measurement.” left out, “Supernatants and cells were frozen until assayed for Insulin content.” left out
Similar results were found in static incubation experiments were performed with P7 dispersed islets cultured in the presence (or absence) of 10^−11 M T3 for four days. mRNA levels for MafA and Ins2 were evaluated using real-time PCR. […]

beta cells = settings: Verga et al. 2006; cited from earlier work
[2] = in vivo administration, rats, Hartoft-Nielson et al. 2009; cited from earlier work
neonatal islets [3] = assay: Quantitative PCR of MafA, insulin and other gene transcription in dispersed neonatal islets cultured with glucose and T3; assay type: cell-based, rat; settings: for insulin mRNA / MafA mRNA: 4 days
Description: To analyze the role of thyroid hormone during postnatal development of the endocrine pancreas, dispersed P7 islets were cultured with the two changing physiological stimuli identified so far glucose (11 mM and 20 mM) and tri-iodothyronine (T3 at 10^−11 M in charcoal-stripped fetal bovine serum (CS-FBS)), and after 4 days MafA and insulin transcription were assessed.
To further explore this idea, dispersed P8 islets were cultured with two changing physiological stimuli identified so far glucose (11 mM and 20 mM) and tri-iodothyronine (T3) at a concentration of 10^−11 M (T-11; gray bars) or with […] T3 (T-9) in charcoal-stripped fetal bovine serum (CS-FBS); after 4 days transcription levels of MafA and the MafA targets Ins2, GLP1R, PCSK1, PC, and LDH-A were assessed.
as §2

[4] = P8 islet cells treated with T3 vs control untreated cells, quantitative PCR, FIG. 9
[5] = P8 islets cultured for 4 days with 0.015 nM T3 (T-9)
[6] = dispersed P8 islets, glucose (11 mM and 20 mM) and T3, CS-FBS, FIG. 5C

Question: With `N[C@@H](Cc1cc(I)c(Oc2ccc(O)c(I)c2)c(I)c1)C(=O)O` [T3, L-3,5,3′-triiodothyronine] as the compound, how does the “differentiation to or towards a glucose responsive insulin secreting cell line” value (HPANC-1) read?
Answer: promote differentiation

Question: And the “insulin secretion in response to 16.8 mM glucose” value (single beta cells; P7 cells cultured for 4 days with thyroid hormone, one experiment)?
Answer: an increase in insulin secretion

Question: What about the “insulin secretion in the presence 16.8 mM glucose” value (single beta cells; P7 cells treated with T3 compared to untreated control cells, FIGS. 7A and 7B legend) of the same compound?
Answer: increases insulin secretion

Question: And the insulin secretion index (single beta cells; dispersed P8 islets cultured for 4 days with 10^−11 M T3, FIG. 7A)?
Answer: marked increase

Question: And the “percentage of insulin secreting cells” value (single beta cells; dispersed P8 islets cultured for 4 days with 10^−11 M T3, FIG. 7B)?
Answer: marked increase

Question: And the “proliferation in pancreatic acinar cells” value (pancreatic acinar cells)?
Answer: promotes increased proliferation

Question: And the “proliferation in pancreatic islet (e.g., beta cells) and ductal cells” value (pancreatic acinar cells)?
Answer: but not in pancreatic islet (e.g., beta cells) and ductal cells

Question: And the MafA transcription (neonatal islets [1])?
Answer: increase

Question: And the Glucose-stimulated insulin secretion (P7 dispersed islets)?
Answer: significantly increased

Question: What about the “apoptosis in beta cells” value (beta cells) of the same compound?
Answer: reduces apoptosis

Question: And the “cell proliferation in beta cells” value (beta cells)?
Answer: promotes cell proliferation

Question: And the beta cell mass [2]?
Answer: increased

Question: What about the “incidence of type I diabetes” value [2] of the same compound?
Answer: reduced

Question: What about the “MafA mRNA levels increase” value (neonatal islets [3]; P7 dispersed islets, 10^−11 M T3 for four days, real-time PCR, FIG. 6A) of the same compound?
Answer: about two-fold

Question: And the “transcription of MCT1” value (neonatal islets [3]; [4])?
Answer: significantly increases

Question: And the “transcription of MafA” value (neonatal islets [3]; [4])?
Answer: significantly increases

Question: And the “transcription of TRb” value (neonatal islets [3]; [4])?
Answer: significantly increases

Question: And the “MafA mRNA increase compared with control cultured islets” value (neonatal islets [3]; [5])?
Answer: 2.5 fold

Question: And the “insulin mRNA increase compared with control cultured islets” value (neonatal islets [3]; [5])?
Answer: 71%

Question: And the “insulin mRNA” value (neonatal islets [3]; dispersed P7 islets, glucose (11 mM and 20 mM) and T3 at 10^−11 M in CS-FBS, stimuli separately and together)?
Answer: significantly increased

Question: And the “MafA mRNA” value (neonatal islets [3]; dispersed P7 islets, glucose (11 mM and 20 mM) and T3 at 10^−11 M in CS-FBS, stimuli separately and together, FIG. 5A)?
Answer: significantly increased

Question: And the “MafA mRNA” value (neonatal islets [3]; [6])?
Answer: significantly increased

Question: What about the “insulin mRNA” value (neonatal islets [3]; [6]) of the same compound?
Answer: significantly increased
